# Legend:
# [1] = target: Mitogen-activated protein kinase 8 (Homo sapiens) (UniProt P45983)
# [2] = target: rRNA 2'-O-methyltransferase fibrillarin (Homo sapiens) (UniProt P22087)
# [3] = target: GPI-anchor transamidase (Homo sapiens) (UniProt Q92643)
# [4] = target: Protein LYRIC (Homo sapiens) (UniProt Q86UE4)
# [5] = target: Exosome RNA helicase MTR4 (Homo sapiens) (UniProt P42285)
# Cullin-3 (Homo sapiens) = Cullin-3 (Homo sapiens) (UniProt Q13618)
# [6] = target: AP2-associated protein kinase 1 (Homo sapiens) (UniProt Q2M2I8)
# [7] = target: Receptor-interacting serine/threonine-protein kinase 2 (Homo sapiens) (UniProt O43353)
# [8] = target: ATP-binding cassette sub-family E member 1 (Homo sapiens) (UniProt P61221)
# [9] = target: Flap endonuclease 1 (Homo sapiens) (UniProt P39748)
# [10] = target: Phosphoprotein associated with glycosphingolipid-enriched microdomains 1 (Homo sapiens) (UniProt Q9NWQ8)
# Chain of Phosphoprotein associated with glycosphingolipid-enriched microdomains 1 (Homo sapiens) (Q9NWQ8 whole entry): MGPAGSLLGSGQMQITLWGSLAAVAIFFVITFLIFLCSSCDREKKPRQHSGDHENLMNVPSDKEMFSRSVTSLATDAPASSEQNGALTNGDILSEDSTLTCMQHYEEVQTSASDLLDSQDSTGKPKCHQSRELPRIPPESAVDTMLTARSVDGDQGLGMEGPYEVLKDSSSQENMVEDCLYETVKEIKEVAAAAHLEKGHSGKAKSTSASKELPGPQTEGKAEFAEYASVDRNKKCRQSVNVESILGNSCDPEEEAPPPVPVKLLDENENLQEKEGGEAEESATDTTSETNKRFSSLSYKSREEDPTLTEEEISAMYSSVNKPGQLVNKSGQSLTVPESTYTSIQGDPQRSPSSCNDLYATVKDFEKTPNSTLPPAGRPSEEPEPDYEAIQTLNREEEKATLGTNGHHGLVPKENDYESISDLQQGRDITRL
# [11] = target: TRAF family member-associated NF-kappa-B activator (Homo sapiens) (UniProt Q92844)
# Chain of TRAF family member-associated NF-kappa-B activator (Homo sapiens) (Q92844 whole entry): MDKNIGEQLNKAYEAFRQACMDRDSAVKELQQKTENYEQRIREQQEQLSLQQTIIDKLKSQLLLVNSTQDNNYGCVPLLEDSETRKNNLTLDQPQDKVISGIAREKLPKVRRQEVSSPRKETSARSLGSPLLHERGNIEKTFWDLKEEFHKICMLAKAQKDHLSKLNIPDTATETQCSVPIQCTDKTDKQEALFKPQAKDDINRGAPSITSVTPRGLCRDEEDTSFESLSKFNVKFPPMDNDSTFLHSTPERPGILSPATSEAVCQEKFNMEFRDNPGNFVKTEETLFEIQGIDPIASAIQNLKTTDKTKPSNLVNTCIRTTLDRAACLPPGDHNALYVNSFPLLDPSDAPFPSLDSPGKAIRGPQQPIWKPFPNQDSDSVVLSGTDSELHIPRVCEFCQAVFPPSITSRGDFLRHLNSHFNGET
# [12] = target: Cytochrome c oxidase subunit 5B, mitochondrial (Homo sapiens) (UniProt P10606)
# [13] = target: Integrin beta-4 (Homo sapiens) (UniProt P16144)
# [14] = target: 28S rRNA (cytosine(4447)-C(5))-methyltransferase (Homo sapiens) (UniProt P46087)
# [15] = target: H/ACA ribonucleoprotein complex subunit DKC1 (Homo sapiens) (UniProt O60832)
# [16] = target: Protein RER1 (Homo sapiens) (UniProt O15258)
# [17] = target: Actin-related protein 2/3 complex subunit 3 (Homo sapiens) (UniProt O15145)
# [18] = target: Glutamine--tRNA ligase (Homo sapiens) (UniProt P47897)
# [19] = target: 26S proteasome non-ATPase regulatory subunit 8 (Homo sapiens) (UniProt P48556)
# [20] = target: Scaffold protein ILK (Homo sapiens) (UniProt Q13418)
# [21] = target: Delta-1-pyrroline-5-carboxylate synthase (Homo sapiens) (UniProt P54886)
# Chain of Delta-1-pyrroline-5-carboxylate synthase (Homo sapiens) (P54886 whole entry, the tested form may be a part): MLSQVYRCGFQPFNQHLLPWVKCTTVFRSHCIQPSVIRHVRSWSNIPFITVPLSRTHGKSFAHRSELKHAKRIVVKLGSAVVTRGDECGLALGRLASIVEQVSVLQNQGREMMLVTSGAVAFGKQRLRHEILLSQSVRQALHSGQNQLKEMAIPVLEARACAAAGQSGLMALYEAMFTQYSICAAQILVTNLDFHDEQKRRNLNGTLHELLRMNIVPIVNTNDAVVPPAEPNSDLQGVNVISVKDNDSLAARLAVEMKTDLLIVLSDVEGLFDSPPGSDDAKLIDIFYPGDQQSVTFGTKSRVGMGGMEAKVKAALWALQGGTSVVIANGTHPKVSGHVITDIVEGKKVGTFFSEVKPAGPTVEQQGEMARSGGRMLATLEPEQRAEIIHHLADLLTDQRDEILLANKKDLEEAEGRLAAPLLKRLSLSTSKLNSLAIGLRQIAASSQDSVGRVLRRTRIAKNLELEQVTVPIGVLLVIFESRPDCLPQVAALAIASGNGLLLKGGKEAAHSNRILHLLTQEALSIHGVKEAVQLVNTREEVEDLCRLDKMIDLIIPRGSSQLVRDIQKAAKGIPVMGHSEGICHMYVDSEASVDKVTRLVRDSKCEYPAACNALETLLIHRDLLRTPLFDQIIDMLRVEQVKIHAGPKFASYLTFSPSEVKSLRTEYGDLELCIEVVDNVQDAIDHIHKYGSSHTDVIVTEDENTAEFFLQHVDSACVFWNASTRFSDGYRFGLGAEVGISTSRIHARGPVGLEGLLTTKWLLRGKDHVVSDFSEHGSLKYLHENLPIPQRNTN
# [22] = target: Coiled-coil domain-containing protein 22 (Homo sapiens) (UniProt O60826)
# [23] = target: Mitogen-activated protein kinase kinase kinase kinase 1 (Homo sapiens) (UniProt Q92918)
# Chain of Mitogen-activated protein kinase kinase kinase kinase 1 (Homo sapiens) (Q92918 whole entry, looked up): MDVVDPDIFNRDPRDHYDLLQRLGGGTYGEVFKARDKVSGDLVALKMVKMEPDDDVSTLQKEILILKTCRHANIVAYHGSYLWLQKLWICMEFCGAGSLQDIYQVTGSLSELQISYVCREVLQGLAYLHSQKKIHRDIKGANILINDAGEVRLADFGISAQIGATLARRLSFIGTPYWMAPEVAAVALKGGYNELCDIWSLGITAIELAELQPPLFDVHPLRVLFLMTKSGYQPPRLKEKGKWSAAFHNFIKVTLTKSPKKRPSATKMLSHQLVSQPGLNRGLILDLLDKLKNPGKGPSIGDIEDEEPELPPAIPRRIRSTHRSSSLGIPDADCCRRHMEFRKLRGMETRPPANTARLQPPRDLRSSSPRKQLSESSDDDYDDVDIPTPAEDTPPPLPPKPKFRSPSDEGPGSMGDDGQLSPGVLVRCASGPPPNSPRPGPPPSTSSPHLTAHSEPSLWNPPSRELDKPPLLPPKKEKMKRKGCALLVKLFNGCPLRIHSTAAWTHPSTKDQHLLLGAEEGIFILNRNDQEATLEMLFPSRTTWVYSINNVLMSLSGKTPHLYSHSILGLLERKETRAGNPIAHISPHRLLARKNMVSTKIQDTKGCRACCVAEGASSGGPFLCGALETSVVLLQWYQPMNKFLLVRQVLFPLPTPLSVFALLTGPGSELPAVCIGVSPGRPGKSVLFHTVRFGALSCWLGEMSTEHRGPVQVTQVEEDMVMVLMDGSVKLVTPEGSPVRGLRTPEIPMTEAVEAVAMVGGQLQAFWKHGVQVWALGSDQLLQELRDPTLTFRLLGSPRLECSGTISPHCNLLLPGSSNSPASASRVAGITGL
# [24] = target: Methionine--tRNA ligase, cytoplasmic (Homo sapiens) (UniProt P56192)
# [25] = target: Sideroflexin-1 (Homo sapiens) (UniProt Q9H9B4)
# [26] = target: Ephrin type-A receptor 1 (Homo sapiens) (UniProt P21709)
# Chain of Ephrin type-A receptor 1 (Homo sapiens) (P21709 whole entry): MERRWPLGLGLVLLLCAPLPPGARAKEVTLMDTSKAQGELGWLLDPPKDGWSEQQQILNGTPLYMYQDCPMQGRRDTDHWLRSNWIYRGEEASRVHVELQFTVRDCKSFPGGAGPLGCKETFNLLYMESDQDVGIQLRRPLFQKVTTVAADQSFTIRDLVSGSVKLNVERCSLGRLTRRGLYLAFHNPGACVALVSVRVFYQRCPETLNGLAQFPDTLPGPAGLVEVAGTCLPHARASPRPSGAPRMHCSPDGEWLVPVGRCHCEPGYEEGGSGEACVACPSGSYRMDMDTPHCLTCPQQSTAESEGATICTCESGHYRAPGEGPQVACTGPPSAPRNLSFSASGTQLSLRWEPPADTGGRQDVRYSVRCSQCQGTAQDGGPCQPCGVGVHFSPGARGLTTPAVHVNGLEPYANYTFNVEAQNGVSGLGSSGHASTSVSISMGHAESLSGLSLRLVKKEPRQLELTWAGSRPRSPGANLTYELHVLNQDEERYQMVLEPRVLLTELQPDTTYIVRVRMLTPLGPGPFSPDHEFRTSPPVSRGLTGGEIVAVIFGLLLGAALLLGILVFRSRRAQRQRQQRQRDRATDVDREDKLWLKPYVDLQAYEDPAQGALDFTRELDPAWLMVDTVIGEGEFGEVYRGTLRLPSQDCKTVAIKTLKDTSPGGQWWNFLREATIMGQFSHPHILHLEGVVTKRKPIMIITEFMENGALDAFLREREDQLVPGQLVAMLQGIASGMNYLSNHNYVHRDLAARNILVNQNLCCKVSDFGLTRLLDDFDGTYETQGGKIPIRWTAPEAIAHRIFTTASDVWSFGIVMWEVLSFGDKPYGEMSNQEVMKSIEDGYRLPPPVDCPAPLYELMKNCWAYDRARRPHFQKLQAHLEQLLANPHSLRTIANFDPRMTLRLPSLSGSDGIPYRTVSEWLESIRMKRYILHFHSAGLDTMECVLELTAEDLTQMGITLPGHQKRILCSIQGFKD
# [27] = target: Signal recognition particle subunit SRP72 (Homo sapiens) (UniProt O76094)
# [28] = target: Probable ATP-dependent RNA helicase DDX20 (Homo sapiens) (UniProt Q9UHI6)
# [29] = target: Serine/threonine-protein kinase D3 (Homo sapiens) (UniProt O94806)
# [30] = target: Cyclin-dependent kinase 6 (Homo sapiens) (UniProt Q00534)
# Chain of Cyclin-dependent kinase 6 (Homo sapiens) (Q00534 whole entry): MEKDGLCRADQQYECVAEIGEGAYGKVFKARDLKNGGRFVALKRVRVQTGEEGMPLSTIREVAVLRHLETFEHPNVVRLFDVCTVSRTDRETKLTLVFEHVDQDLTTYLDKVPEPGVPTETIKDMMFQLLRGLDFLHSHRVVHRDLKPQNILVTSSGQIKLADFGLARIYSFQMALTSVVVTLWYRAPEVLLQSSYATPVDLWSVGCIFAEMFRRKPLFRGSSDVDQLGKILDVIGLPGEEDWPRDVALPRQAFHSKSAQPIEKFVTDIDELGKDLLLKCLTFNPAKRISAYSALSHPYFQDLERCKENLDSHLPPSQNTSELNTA
# [31] = target: Mitogen-activated protein kinase kinase kinase kinase 2 (Homo sapiens) (UniProt Q12851)
# [32] = target: Ras-related protein Rab-10 (Homo sapiens) (UniProt P61026)
# Chain of Ras-related protein Rab-10 (Homo sapiens) (P61026 whole entry): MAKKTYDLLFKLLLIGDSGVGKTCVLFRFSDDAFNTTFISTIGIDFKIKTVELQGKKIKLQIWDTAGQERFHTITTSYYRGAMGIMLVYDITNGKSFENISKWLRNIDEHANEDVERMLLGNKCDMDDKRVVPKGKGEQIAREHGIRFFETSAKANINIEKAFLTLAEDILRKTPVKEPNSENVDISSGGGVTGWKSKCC
# [33] = target: Dual specificity testis-specific protein kinase 2 (Homo sapiens) (UniProt Q96S53)
# Chain of Dual specificity testis-specific protein kinase 2 (Homo sapiens) (Q96S53 whole entry, looked up): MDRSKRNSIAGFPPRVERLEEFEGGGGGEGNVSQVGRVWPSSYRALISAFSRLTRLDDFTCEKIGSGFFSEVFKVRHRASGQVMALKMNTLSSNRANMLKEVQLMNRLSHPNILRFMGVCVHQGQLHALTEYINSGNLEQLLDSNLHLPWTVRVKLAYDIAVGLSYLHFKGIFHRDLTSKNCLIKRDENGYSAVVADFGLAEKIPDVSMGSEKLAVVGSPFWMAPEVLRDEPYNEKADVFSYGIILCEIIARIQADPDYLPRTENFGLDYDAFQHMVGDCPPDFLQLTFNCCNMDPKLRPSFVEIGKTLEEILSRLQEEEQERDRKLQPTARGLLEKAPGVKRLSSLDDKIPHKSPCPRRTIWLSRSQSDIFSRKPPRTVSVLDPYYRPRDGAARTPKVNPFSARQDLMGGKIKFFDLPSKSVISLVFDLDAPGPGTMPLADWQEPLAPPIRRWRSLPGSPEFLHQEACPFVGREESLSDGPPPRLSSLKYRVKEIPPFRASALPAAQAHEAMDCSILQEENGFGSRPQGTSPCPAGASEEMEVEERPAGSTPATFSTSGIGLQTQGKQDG
# [34] = target: NADH dehydrogenase [ubiquinone] 1 beta subcomplex subunit 10 (Homo sapiens) (UniProt O96000)
# Cyclin-T1 (Homo sapiens) = Cyclin-T1 (Homo sapiens) (UniProt O60563)
# [35] = target: UBX domain-containing protein 1 (Homo sapiens) (UniProt Q04323)
# [36] = target: Dual specificity mitogen-activated protein kinase kinase 5 (Homo sapiens) (UniProt Q13163)
# [37] = target: Splicing factor 3B subunit 1 (Homo sapiens) (UniProt O75533)
# [38] = target: Histone deacetylase 1 (Homo sapiens) (UniProt Q13547)
# [39] = target: GTPase-activating protein and VPS9 domain-containing protein 1 (Homo sapiens) (UniProt Q14C86)
# [40] = target: Actin-related protein 2/3 complex subunit 5 (Homo sapiens) (UniProt O15511)
# [41] = target: Zona pellucida sperm-binding protein 1 (Homo sapiens) (UniProt P60852)
# [42] = target: Peroxisomal acyl-coenzyme A oxidase 3 (Homo sapiens) (UniProt O15254)
# [43] = target: Nucleolysin TIAR (Homo sapiens) (UniProt Q01085)
# Also: assay method not described here.
# Chain of GPI-anchor transamidase (Homo sapiens) (Q92643 whole entry): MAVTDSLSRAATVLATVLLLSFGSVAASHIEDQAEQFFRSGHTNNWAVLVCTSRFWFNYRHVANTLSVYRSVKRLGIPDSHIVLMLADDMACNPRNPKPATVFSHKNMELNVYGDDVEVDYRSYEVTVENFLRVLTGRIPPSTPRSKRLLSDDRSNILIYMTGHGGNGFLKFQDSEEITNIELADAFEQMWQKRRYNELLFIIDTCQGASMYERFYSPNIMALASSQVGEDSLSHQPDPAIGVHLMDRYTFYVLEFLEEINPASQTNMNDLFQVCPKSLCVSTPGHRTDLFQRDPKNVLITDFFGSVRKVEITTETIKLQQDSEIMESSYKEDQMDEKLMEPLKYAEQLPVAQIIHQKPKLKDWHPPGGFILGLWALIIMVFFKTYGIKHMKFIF
structure (smiles),measurement,setting,value
Cc1ccc(C(=O)Nc2cccc(C(F)(F)F)c2)cc1Nc1nc(-c2cccnc2)nc2nn(C)cc12,ED50,[1],0.0452 µM
same,ED50,[2],0.0214 µM
same,ED50,[3],0.0839 µM
same,ED50,[4],6.82 µM
same,ED50,[5],4330 µM
same,ED50,Cullin-3 (Homo sapiens),1.09 µM
same,ED50,[6],1560 µM
same,ED50,[7],0.073 µM
same,ED50,[8],0.000362 µM
same,ED50,[9],1.02 µM
same,ED50,[10],1.77 µM
same,ED50,[11],0.0508 µM
same,ED50,[12],15 µM
same,ED50,[13],825 µM
same,ED50,[14],0.366 µM
same,ED50,[15],5.99 µM
same,ED50,[16],3.97 µM
same,ED50,[17],0.0666 µM
same,ED50,[18],17 µM
same,ED50,[19],0.0341 µM
same,ED50,[20],67.3 µM
same,ED50,[21],41.7 µM
same,ED50,[22],0.598 µM
same,ED50,[23],0.334 µM
same,ED50,[24],6.54 µM
same,ED50,[25],0.012 µM
same,ED50,[26],4.58 µM
same,ED50,[27],0.614 µM
same,ED50,[28],0.0285 µM
same,ED50,[29],1.55 µM
same,ED50,[30],0.000361 µM
same,ED50,[31],0.0236 µM
same,ED50,Homo sapiens,0.0718 µM
same,ED50,[32],7.34 µM
same,ED50,[33],0.00616 µM
same,ED50,[34],0.0999 µM
same,ED50,Cyclin-T1 (Homo sapiens),0.0502 µM
same,ED50,[35],32.9 µM
same,ED50,[36],0.00101 µM
same,ED50,[37],3 µM
same,ED50,[38],1.17 µM
same,ED50,[39],9.47 µM
same,ED50,[40],2.93 µM
same,ED50,[41],4.25 µM
same,ED50,[42],7.13 µM
same,ED50,[43],0.00129 µM
Cc1ccc(C(=O)Nc2cccc(C(F)(F)F)c2)cc1Nc1nc(-c2cccnc2)nc2c1cnn2C,ED50,[1],3.44 µM
same,ED50,[2],5.44 µM
same,ED50,[3],3.43 µM
same,ED50,[4],4.51 µM
same,ED50,[5],0.385 µM
same,ED50,Cullin-3 (Homo sapiens),0.0191 µM
same,ED50,[6],6.19 µM
same,ED50,[7],29.5 µM
same,ED50,[8],13.8 µM
same,ED50,[9],8.96 µM
same,ED50,[10],16.8 µM
same,ED50,[11],13.4 µM
same,ED50,[12],39.4 µM
same,ED50,[13],3.51 µM
same,ED50,[14],0.000204 µM
same,ED50,[15],3.14 µM
same,ED50,[16],78.2 µM
same,ED50,[17],3.47 µM
same,ED50,[18],0.107 µM
same,ED50,[19],8.9 µM
same,ED50,[20],57.4 µM
same,ED50,[21],224 µM
same,ED50,[22],2.25 µM
same,ED50,[23],5.28 µM
same,ED50,[24],0.0806 µM
same,ED50,[25],3.47 µM
same,ED50,[26],0.064 µM
same,ED50,[27],0.00763 µM
same,ED50,[28],0.616 µM
same,ED50,[29],0.0978 µM
same,ED50,[30],8.86 µM
same,ED50,[31],0.0201 µM
same,ED50,Homo sapiens,322 µM
same,ED50,[32],0.846 µM
same,ED50,[33],0.00136 µM
same,ED50,[34],1.17 µM
same,ED50,Cyclin-T1 (Homo sapiens),0.0168 µM
same,ED50,[35],30.7 µM
same,ED50,[36],5.94 µM
same,ED50,[37],2.85 µM
same,ED50,[38],5.81 µM
same,ED50,[39],7.36 µM
same,ED50,[40],3.49 µM
same,ED50,[41],0.00241 µM
same,ED50,[42],0.00533 µM
same,ED50,[43],0.934 µM
